Laboratory results reported in patent US20190218508A1, “METHODS OF CELL SEPARATION” (CELLS4LIFE GROUP LLP, priority 2013, published 2019).

Tested on: erythrocytes
Assay: Visual separation (sedimentation) of erythrocyte and nucleated cell fractions of blood samples
Format: cell-based
Conditions: for order from best to worst of each substance at the separation / separation of whole blood: Example 4; for order from best to worst of each substance at the separation: with 2.5% Dextran 70; for separation of whole blood: whole blood 1:1 with PBS composition of 2.5% Dextran 70 plus substance at 1-5%, 30 minutes room temperature
Description: Umbilical cord blood was collected into standard Baxter 250 ml (nominal) blood bags containing 35 ml of a citrate phosphate dextrose adenine (CPDA) anticoagulant solution.
A solution containing dextran and a further constituent selected from dimethyl sulphoxide (DMSO), dimethyl glycine (DMG), L-valine, L-proline, β-alanine, leucine, isoleucine and glycine, in phosphate-buffered saline (PBS), was prepared. This solution was added to a blood sample at a ratio of 1:1, this was then mixed thoroughly. Separation of the erythrocyte and nucleated cell fractions took place at room temperature within a time period of 15 or 30 minutes. […]
Whole blood samples were mixed with 1:1 with PBS compositions comprising 2.5% Dextran 70 plus DMSO, L-valine, L-proline, β-alanine, leucine, isoleucine, glycine and DMG. Each of the amino acids and the DMSO were tested at concentration levels of 1%, 1.5%, 2%, 2.5%, 3%, 3.5%, 4%, 4.5% and 5% in the PBS composition. After mixing, each sample was left for 30 minutes at room temperature. […]

[1] = dextran 70 Mw final 2.5% + substance final 2.5% w/v, after 30 minutes, data not shown

Row | SMILES | order from best to worst of each substance at the separation | separation of erythrocytes and nucleated cells [1] | separation of erythrocytes and nucleated cells (dextran 500 Mw final 2.5% w/v + DMSO final 1% to 5% v/v, after 15 minutes and 30 minutes) | separation of the erythrocytes from the nucleated cells (umbilical cord blood 1:1, dextran 500 Mw final 2.5% w/v + DMSO final 2% or 2.5% v/v, 30 minutes) | separation of whole blood
1 | CN(C)CC(=O)O [DMG, dimethyl glycine] | DMSO>L-valine>DMG>L-proline>β-alanine>Leucine/isoleucine/glycine | clear separation |  |  | 
2 | C[S+](C)[O-] [DMSO, dimethyl sulphoxide] | DMSO>L-valine>DMG>L-proline>β-alanine>Leucine/isoleucine/glycine |  | clear separation | clear separation | 
3 | O=C(O)[C@@H]1CCCN1 [L-proline] | DMSO>L-valine>DMG>L-proline>β-alanine>Leucine/isoleucine/glycine | little if any separation |  |  | did very little
4 | CC(C)[C@H](N)C(=O)O [L-valine] | DMSO>L-valine>DMG>L-proline>β-alanine>Leucine/isoleucine/glycine | clear separation |  |  | performed better than DMG
5 | NCC(=O)O [glycine] | DMSO>L-valine>DMG>L-proline>β-alanine>Leucine/isoleucine/glycine | little if any separation |  |  | almost total inactivity
6 | CC[C@H](C)[C@H](N)C(=O)O [isoleucine] | DMSO>L-valine>DMG>L-proline>β-alanine>Leucine/isoleucine/glycine | little if any separation |  |  | almost total inactivity
7 | CC(C)C[C@H](N)C(=O)O [leucine] | DMSO>L-valine>DMG>L-proline>β-alanine>Leucine/isoleucine/glycine | little if any separation |  |  | almost total inactivity
8 | NCCC(=O)O [β-alanine] | DMSO>L-valine>DMG>L-proline>β-alanine>Leucine/isoleucine/glycine | little if any separation |  |  | did very little
